The results in this text go back to patent US20250052765A1, “Nanobody Discovery Platform and Related Methods” (Carnegie Mellon University, priority 2021, published 2025).

One assay has as its system LaG18/GFP strain. The settings on record: 300 nM TD during cell culture; bleached for 90 sec at 525 nm.

Description for LaG18/GFP strain: Flow cytometer histograms of LaG18/GFP strain labeled during cell culture with 300 nM TD. Mean values are shown; unbleached (red), bleached for 90 sec at 525 nm (blue), and unlabeled control cells (orange).
Description for NB/TPD complexes: Green numbers are NB-gFAP signal; red numbers are TPD-rFAP signals. In vivo, cells treated with 300 nM TD during 3-day cell culture; in vitro, cells treated with TD after harvest in assay buffer for 4 hours.
The green emitting fluorogen activating protein (gFAP) is genetically fused using GG assembly 3′ to each NB (NB-gFAP) where the gFAP may be ScFvl or AM2-2; the red emitting FAP (rFAP) is fused 3′ to each TPD (TPD-rFAP) where the rFAP is dL5. […] If co-expressed NB and TPD specifically bind one another, the TPD-rFAP will be captured on the surface of the co-expressing cell. However, its residence will be finite as determined by the binding affinity of the NB/TPD complex; most of the TPD-rFAP will be lost into the medium over the 3 day period of cell culture. […] This enables quantitative self-reporting of the presence of the NB/TPD complex as a ratio of red to green fluorescence. FACS will then be used to isolate cells displaying the complex.
The secreted ectodomain TPD-rFAP fusions are initially sequestered within the yeast periplasmic space and/or inner cell wall, and upon buffer treatment released to outer cell surface over the course of a few hours (FIG. 22). […] A second feature of TDs is that they can be successfully applied to cells post-harvest instead of the usual inclusion of TDs in growth medium for 3 days.

Turning to sulfonate TO1-PEG3500-MG, in the assay with NB/TPD complexes, the “binding affinities of NB/TPD complexes efficiently locked/captured on the yeast cell surface” value was not above 20 µM. For the same substance, the “loss of rFAP/MG (TPD) signal after bleaching TO1 end of TD” value in the assay on LaG18/GFP strain is on record as “about half of the rFAP/MG signal is lost”.
